In patent US20260355189A1, “SMALL MOLECULE INHIBITORS OF NEUTROPHIL EXOCYTOSIS AND INFLAMMATION” (THE SCRIPPS RESEARCH INSTITUTE, priority 2022, published 2026):

What was measured:
[1] = test system: Nlrp3^A350V cre ERT2 mice; assay: Nlrp3 A350V cre ERT2 mouse model of cryopyrin-associated periodic syndrome (CAPS); format: in vivo; conditions: 30 mg/Kg i.p.; for Number of leukocytes and leukocyte subtypes: 7 or 13 days, FIG. 9B; for Activation of circulating neutrophils (CD63 upregulation): FIG. 9D; for Neutrophilic infiltration into the kidney (total MMP9 and MPO levels): tissues day 13, FIG. 9F
Method: […] cre ERT2 and control mice were injected i.p. with 50 mg/kg tamoxifen followed by C6 (30 mg/Kg) or vehicle as described. B) Total leukocytes numbers and subtypes were not affected. C) Animals suffer weight loss with disease progression. D) The activation of circulating neutrophils is attenuated by C6. E, The percentage of immature (pro-inflammatory, Ly6G-) neutrophils in circulation (blood) in Nlrp3^A350V is attenuated by treatment with C6 (4.29%) as compared to vehicle (11.0%). […] F, The protection was specific for kidneys.
In this model, disease is caused by the Nlrp3^A350V mutations. The Nlrp3^A350V inducible mouse model (MWS CreT) is homologous to humans suffering from CAPS with the Muckle-Wells A352V mutation in the NLRP3 gene. The tamoxifen inducible Nrp3^A350V cre ERT2 and control animals were injected (i.p.) with 50 mg/kg tamoxifen free base to induce disease (J Immunol 189, 2707-2711, doi:10.4049/jimmunol.1101737 (2012)). The mice (6-12 weeks old) had access to food and water ad libitum. All animal studies were performed in compliance with the U.S. Department of Health and Human Services Guide for the Care and Use of Laboratory Animals and according to NIH and institutional guidelines. All animal protocols and procedures were approved by the University of California San Diego Institutional Animal Care and Use Committees (IACUC). Mice were treated with the neutrophil specific inhibitor NEIa-C6 or vehicle (5% DMSO in PBS). In this model, NLRP3^A350V disease develops progressively in 15 days after first induction with tamoxifen. Between day 0 and day 5 mice were injected (i.p) every other day with tamoxifen followed by NEIa-C6 (30 mg/Kg) or vehicle. Next, administration of NEIa-C6 or vehicle continued until day 13, in the absence of tamoxifen. Blood samples were obtained at day 7 and blood and tissues harvested at day 13. […] The effect was specific for kidneys as lung and liver infiltration was unaffected (FIG. 9G).

[2] = test system: mouse neutrophils; assay: Isoluminol-dependent chemiluminescence assay of MPO secretion in purified mouse neutrophils; format: cell-based; conditions: 10 μM inhibitor, PMA stimulated, FIG. 3B
Source text: FIGS. 3A-C illustrate the effect of Inhibitors C1, C2, C4, C5, and C6 and comparator Nexinhib 20 (shown as “C20”) on MPO secretion of mouse neutrophils. FIG. 3A is a schematic representation of a cell-based secondary screening assay used to analyze the potency the potency of Rab27a-JFC1 inhibitors for their ability to decrease exocytosis of intact human neutrophil. This cell-based assay measures the secretion of myeloperoxidase (MPO) by human neutrophils using cell-impermeant isoluminol-dependent chemiluminescence in the absence of exogenous peroxidases.
Human neutrophils were isolated from normal donor's blood by Ficoll density centrifugation, as described previously (23). Murine bone marrow-derived neutrophils were isolated using a Percoll gradient fractionation system as described (24). A three-layer Percoll gradient was used (52%, 64%, and 72%), and neutrophils were isolated from the 64-72% interface, washed, and used in the assays.
Extracellular MPO-dependent reactive oxygen species (ROS) production was measured using the chemiluminescence reactions mediated by isoluminol (25). To this end, 3×10^5 neutrophils were resuspended in serum-free RPMI 1640 medium in the presence of cell-impermeant isoluminol, and reactions were carried out in the absence of exogenous peroxidase. Neutrophils were incubated in the presence of compounds or DMSO (0.5%) pin-tooled into 384-well plates in a […]. Control experiments were run in parallel in the presence of [COMPOUND LEFT OUT] (0.5 mM) to inhibit endogenous myeloperoxidase. After addition of stimuli (phorbol 12-myristate 13-acetate, “PMA”) or vehicle using liquid handling devices (BioRaptor FRD, Beckman Coulter), MPO-dependent chemiluminescence was continuously monitored for 30 min at 37 °C using a 2104 EnVision multilabel plate reader. For secretion assays, 0.5×10^6 neutrophils were incubated in RPMI 1640 medium in polystyrene 96-well plates in the presence of Inhibitors or dimethyl sulfoxide (DMSO) control for 1 hour and stimulated for the indicated times at 37 °C with PMA (0.1 μg/ml), GM-CSF (10 ng/ml), and fMLP (1 μM) or DMSO control. The cells were spun down, and supernatants were transferred to clean plates using plate filters to avoid contamination from cellular secretory proteins. MPO was measured by ELISA (R&D Systems).
Results: FIG. 3B is a graph showing the effect of Inhibitors C1, C2, C4, C5, and C6 on secreted MPO-dependent reaction using the isoluminol-dependent chemiluminescence assay in highly purified mouse neutrophils. On the graph of FIG. 3B, the pre-fix “NS” means “no stimuli” where the cells were treated with 10 μM C1, C2, C4, C5, C6, and C20 alone without any exocytosis stimuli. The pre-fix “PMA” means the cells were stimulated with PMA to secrete MPO and were treated with 10 μM of the designated Inhibitor. […] Mean % inhibition: C1, 76.74; C2, 59.85; C4, 70.9; C6, 62.4; C20, 99.22.

For CCN(CC)CCNC(=O)/C(=C/c1cccc([N+](=O)[O-])c1)n1cncn1 [154 (C6)], the “Number of leukocytes and leukocyte subtypes” value ([1]; listed as C6) was “not affected”, the “Number of leukocytes and leukocyte subtypes” value ([1]; listed as NEIa-C6) was “did not affect the number of any leukocyte subtype” and the “Neutrophil mediated inflammation in vivo” value ([1]; FIG. 9) was “inhibits neutrophil mediated inflammation in vivo”. For the same compound, the “Activation of circulating neutrophils (CD63 upregulation)” value ([1]; listed as C6) was “attenuated”, the “Activation of circulating neutrophils (CD63 upregulation)” value ([1]; listed as NEIa-C6) was “decreased neutrophil activation in vivo” and the “Lung and liver neutrophilic infiltration” value ([1]; FIG. 9G) was “unaffected”. For the same compound, the “Neutrophilic infiltration into the kidney (total MMP9 and MPO levels)” value ([1]; listed as C6) was “significantly decreased”, the “Neutrophilic infiltration into the kidney (total MMP9 and MPO levels)” value ([1]; listed as NEIa-C6) was “significantly protected kidneys from neutrophilic infiltration” and the “Percentage of immature (pro-inflammatory, Ly6G-) neutrophils in blood” value ([1]; vehicle 11.0%, FIG. 9E) was 4.29%. For the same compound, the Weight loss ([1]; vs vehicle, FIG. 9C) was “partially protected from weight loss”, the “Number of pro-inflammatory immature neutrophils in blood” value ([1]; vs vehicle, FIG. 9E) was “decreased the number of pro-inflammatory immature neutrophils in blood” and the “Inhibition of exocytosis vs DMSO control” value [2] was “significant inhibition of exocytosis”. It also gave an inhibition at 10 µM ([2]; Mus musculus, Neutrophil) of 62.4%.
